Values of other authors as cited in US20240199641A1, “QUINAZOLINE-4(3H)-ONE DERIVATIVES AS NEGATIVE ALLOSTERIC MODULATORS OF METABOTROPIC GLUTAMATE RECEPTOR 2” (Vanderbilt University, priority 2021, published 2024).
Read-outs that look alike come from different tables or passages of the source.

Tests used:
[1] = tested on: group II mGlu receptors
[2] = mice
[3] = C57Bl6/J mice
[4] = normal animals
[5] = tested on: central mGlu2 and mGlu3 receptors; settings: in vivo
[6] = normal animals; remark: listed apart in the source
[7] = for activity in tail suspension test: Helpless (H) mice
[8] = social isolation reared mice
[9] = CFS model
[10] = treatment for 7 days
[11] = olfactory bulbectomized rats, repeated administration for 14 days

Compound | marble-burying behavior [2] | immobility time in FST [3] | antidepressant-like effects in rat FST [4] | hypolocomotor effect of mGlu2/3 agonist LY379268 [5] | antidepressant-like effects in mouse TST [6] | activity in tail suspension test [7] | freezing behavior [9] | further results
CCCCCCCOC(=O)[C@@]1(F)[C@@H]2C[C@@H](OCc3ccc(Cl)c(Cl)c3)[C@@](N)(C(=O)O)[C@@H]21 [BCI-838] | – | – | – | – | – | – | – | duration of inhibition of group II mGlu receptors by brain concentration of active metabolite BCI-632 ([1]; once-daily oral dosing): 22 h; Dutch APP transgene-associated learning and memory impairment ([1]; three months of treatment): reversed; anxiolytic effects ([1]; three months of treatment): anxiolytic effects; levels of monomeric and oAβ peptides in hippocampus and cortex ([1]; three months of treatment, two AD mouse models): decreased; hippocampal progenitor cell proliferation ([1]; wild-type and Alzheimer's diseased mice, 3 months): stimulated
N[C@](CC1c2ccccc2Oc2ccccc21)(C(=O)O)[C@H]1C[C@@H]1C(=O)O [LY341495] | significantly reduce | dose-dependently reduced | Antidepressant-like effects | achieved the same result | Antidepressant-like effects | active | – | antidepressant effect in helpless mice ([7]; acute administration): potent antidepressant effect
N[C@]1(C(=O)O)[C@H]2[C@@H](C[C@H]1OCc1ccc(Cl)c(Cl)c1)[C@]2(F)C(=O)O [MGS0039] | reduced | – | Antidepressant-like effects | – | Antidepressant-like effects | – | significantly decreased | spontaneous locomotor activity [2]: no significant change; increased immobility in FST [8]: reversed; number of escape failures [10]: significantly reduced; hyperactivity in the open field test [11]: attenuated; learning deficit in the passive avoidance test [11]: attenuated
Cc1cc(-c2cccc(C3=Nc4cc(C)c(C(F)(F)F)cc4NC(=O)C3)c2)cc(C)n1 [RO4491533] | – | dose-dependently reduced | – | reversed | – | active | – | –
CN1C(=O)CN=C(c2ccccc2)c2cc(Cl)ccc21 [diazepam] | – | – | – | – | – | – | significantly decreased | –
CNCCC(Oc1ccc(C(F)(F)F)cc1)c1ccccc1 (centres unmarked) [fluoxetine] | – | – | – | – | – | – | – | antidepressant effect in helpless mice ([7]; chronic (21 days) treatment): full antidepressant effect
